For the data set, the system named is Rh4 rhabdomyosarcoma cell line. It is filed as cell-based. As for the experimental part:
Materials: The cells were cultured at 37° C. in 5% CO2 in a-MEM (Multicell; Wisent, Inc., St. Bruno, Quebec, Canada) with 10% fetal bovine serum (FBS; Life Technologies, Grand Island, N.Y.) and 1% antibiotic mixture, containing 10000 IU penicillin and 10000 μg/ml streptomycin (Multicell; Wisent, Inc., St. Bruno, Quebec, Canada). Trypsin-EDTA, containing 0.05% trypsin and 0.53 mM EDTA was also purchased from Multicell; Wisent, Inc., St. Bruno, Quebec, Canada.
Procedure: A total of 20,000 cells were plated in each well of 48 well-plates and incubated at 37° C. in 5% CO2. After 48 h, the cells were treated with various concentrations of drugs. After 72 h of treatment, the cell viability was determined by alamar blue assay.

As for `Cc1ccc(Nc2nccc(N(C)c3ccc4c(C)n(C)nc4c3)n2)cc1S(N)(=O)=O` [pazopanib, 5-[[4-[(2,3-dimethyl-2H-indazol-6-yl)methylamino]-2-pyrimidinyl]amino]-2-methylbenzenesulfonamide], the “cell viability / cytotoxicity” value is “did not show cytotoxicity”.

Values taken from patent US8709420B2 (GlaxoSmithKline Intellectual Property Limited, priority 2010, dated 2014).
